Experimental data: patent US11672265B2, “Egg replacement containing euglena-derived components” (NOBLEGEN, INC., priority 2019, dated 2023)
Like-named read-outs stand apart in the source and are kept apart here.

Experiments:
[1] = system: microbes in fresh biomass; assay: Treatment of fresh biomass with nisin, TSA plates; assay type: cell-based, bacteria and yeast
Method: Method: Obtained fresh biomass and was washed 1 time with 2.5 times water. The biomass was diluted to 10% (solid content-10.36 w/w %, initial pH was pH 3.35 and the pH was adjusted to 7.2 using 2.5 M NaOH. […] Similarly, about the same amount of biomass without Nisin was also left at both conditions.

[2] = system: microbial growth in non-heat treated biomass; assay type: cell-based, yeast, mold, bacteria; conditions: refrigerator (4° C.) 5 days, CP 1000 ppm, SB + PS 1000 ppm each, BV 0.25% (w/w)
Method: A biomass stored in the refrigerator at harvested pH (pH 2.75) for 2 days after harvest was chosen for microbial analysis. Four different pH conditions were used for non-heat treated biomass storage, pH 3, 4.5, 5 and 7. Three different antimicrobials (see Table 19 for the names and usage levels) were added to biomass at each pH selected. Control without any antimicrobial agents were also stored at different selected pHs. All the biomass samples were stored in a 4° C. refrigerator for 5 days and a TSA plate assay was done to see the presence of any microbes at the 5 day mark.
Samples without any microbial growth were considered for further storage study. After 16 days of storage, a TSA plating was done on all the heat treated biomass and non-heated biomass with SB+PS at pH 3, 4.5 and 5.

Compound | Presence of microbes in biomass treated with nisin ([1]; 70 ppm nisin, biomass pH 7.2, room temperature or 4° C., up to 24 hours) | Prevention of growth of microorganisms in fresh biomass or wet protein concentrate ([1]; 75 ppm of Nisin (conclusion)) | Microbial growth observed in non-heat treated biomass with antimicrobials ([2]; pH 3) | Microbial growth observed in non-heat treated biomass with antimicrobials ([2]; pH 4.5)
nisin | Presence of microbes were found at all storage conditions irrespective of the presence of nisin or storage time | will not be able to prevent the growth of microorganisms |  | 
CCC(=O)[O-].CCC(=O)[O-].[Ca+2] [CP, Calcium propionate] |  |  | yeast | yeast
